The test system of test [1] is RPMI-LR5 (LEN-resistant cells). The test is described as follows: XTT cell viability, LEN-resistant MM cells (Example 9). The conditions noted are these: RPMI-LR5, 48 hours, concentration dependent manner, FIG. 5. It is filed as cell-based. The method, then: (§1) RPMI-MR20, RPMI-LR5 and RPMI-Dox40 were cultured during 48 hours with CBD (FIG. 5A), THC (FIG. 5B), CBD:THC 1:1 (FIG. 5C), CBD:THC 1:5 (FIG. 5D) and CBD:THC 5:1 (FIG. 5E). XTT assay was performed to assess cell viability.

Test [2] has as its system RPMI-MR20 (mitoxantrone-resistant cells). The test is described as follows: XTT cell viability, mitoxantrone-resistant MM cells (Example 9). The following applies: RPMI-MR20, 48 hours, concentration dependent manner, FIG. 5. It is filed as cell-based. The method, then:
as §1

For test [3], the system named is CD138+ cells from myeloma patients. The test is described as follows: XTT cell viability and combination index, CD138+ cells from bone marrow aspirate of MM patients (Example 8). It is filed as cell-based, human. The conditions noted are these: for survival of MM cells (in words): CD138+ patient cells, each of the patients tested, concentration dependent manner, FIG. 4; for pIC50: Homo sapiens, read-out: dose that caused 50% of MM cell death (IC50); for sensitivity of the patient's cells / more effective combination (in words): CD138+ cells, 48 hours. The method, then: This conversion only occurs in viable cells.
Peripheral blood samples from MM patients and healthy donors are processed by Ficoll density gradient centrifugation to isolate peripheral blood mononuclear cells (PBMCs). […] For co-culture assays MM cells are stained with CFSE, cultured in the presence of HS-5 human stroma cell line, treated with the drugs and their viability is evaluated by counterstained with PI and cell viability evaluation by flow cytometer analysis.
XTT assay was performed to assess cell viability. Each treatment was performed in triplicate and presented as mean±SE.
Combination Index (CI) value <1, =1, >1 indicates synergism, additive effect, and antagonism, respectively. Pat 1, 2, 3 indicate the patient number.

For test [4], the system named is MM cells. The following applies: CBD by itself or in synergy with bortezomib; reference [8]; cited from earlier work.
Test [5] concerns RPMI-Dox40 (DOXO-resistant cells). The test is described as follows: XTT cell viability, DOXO-resistant MM cells (Example 9). It is filed as cell-based. The following applies: RPMI-Dox40, 48 hours, concentration dependent manner, FIG. 5. The method, then: as §1

pIC50: −log10 of the molar value. Where two headings read alike, the source gives them in different places.

On to `C=C(C)[C@@H]1CCC(C)=C[C@H]1c1c(O)cc(CCCCC)cc1O` [CBD, Cannabidiol], for which the “survival of MM cells (in words)” value in test [1], in test [2], in test [3] and in test [5] was “decreased survival” throughout. Also, the pIC50 in test [3] (CD138+ cells of patients 1 to 3, 48 hours, FIG. 4D) is 4.90 to 5.17. Besides, the “sensitivity of the patient's cells / more effective combination (in words)” value in test [3] (Patient 1 (SM, no treatment)) is “less sensitive to CBD than to THC”; in test [3] (Patient 2 (VTD)), “slightly more sensitive to CBD than to THC”. For the same molecule, in test [4], the “growth of MM cells (in words)” value was “strongly inhibited growth”.

Take `CCCCCc1cc(O)c2c(c1)OC(C)(C)[C@@H]1CCC(C)=C[C@@H]21` [THC, Tetrahydrocannabinol]: the “survival of MM cells (in words)” value in test [1], in test [2], in test [3] and in test [5] was “decreased survival” in each case. Further, the pIC50 in test [3] (48 h) is 4.46 to 5.22. For the same molecule, the “sensitivity of the patient's cells / more effective combination (in words)” value in test [3] (Patient 3 (VCD)) is on record as “less sensitive to THC than to CBD”.
